≈ marks a conversion by molar mass, not a printed value. Read-outs that look alike come from different tables or passages of the source.
What was measured:
H. pylori [1] = assay: MIC/MBC by microbroth dilution assay against H. pylori; assay type: cell-based, Helicobacter pylori
gastric H+,K+-ATPase = target: T1, gastric H+,K+-ATPase (Sus scrofa, UniProt P19156); assay: Anti gastric proton pump activity: H+,K+-ATPase inhibition in pig gastric membranes; assay type: biochemical
T1 construct: Pig gastric membranes enriched in apical and tubulovesicular membranes were prepared according to [59]; from tissue; host or cells: pig gastric mucosa membranes (apical and tubulovesicular)
T1 sequence (P19156 whole entry): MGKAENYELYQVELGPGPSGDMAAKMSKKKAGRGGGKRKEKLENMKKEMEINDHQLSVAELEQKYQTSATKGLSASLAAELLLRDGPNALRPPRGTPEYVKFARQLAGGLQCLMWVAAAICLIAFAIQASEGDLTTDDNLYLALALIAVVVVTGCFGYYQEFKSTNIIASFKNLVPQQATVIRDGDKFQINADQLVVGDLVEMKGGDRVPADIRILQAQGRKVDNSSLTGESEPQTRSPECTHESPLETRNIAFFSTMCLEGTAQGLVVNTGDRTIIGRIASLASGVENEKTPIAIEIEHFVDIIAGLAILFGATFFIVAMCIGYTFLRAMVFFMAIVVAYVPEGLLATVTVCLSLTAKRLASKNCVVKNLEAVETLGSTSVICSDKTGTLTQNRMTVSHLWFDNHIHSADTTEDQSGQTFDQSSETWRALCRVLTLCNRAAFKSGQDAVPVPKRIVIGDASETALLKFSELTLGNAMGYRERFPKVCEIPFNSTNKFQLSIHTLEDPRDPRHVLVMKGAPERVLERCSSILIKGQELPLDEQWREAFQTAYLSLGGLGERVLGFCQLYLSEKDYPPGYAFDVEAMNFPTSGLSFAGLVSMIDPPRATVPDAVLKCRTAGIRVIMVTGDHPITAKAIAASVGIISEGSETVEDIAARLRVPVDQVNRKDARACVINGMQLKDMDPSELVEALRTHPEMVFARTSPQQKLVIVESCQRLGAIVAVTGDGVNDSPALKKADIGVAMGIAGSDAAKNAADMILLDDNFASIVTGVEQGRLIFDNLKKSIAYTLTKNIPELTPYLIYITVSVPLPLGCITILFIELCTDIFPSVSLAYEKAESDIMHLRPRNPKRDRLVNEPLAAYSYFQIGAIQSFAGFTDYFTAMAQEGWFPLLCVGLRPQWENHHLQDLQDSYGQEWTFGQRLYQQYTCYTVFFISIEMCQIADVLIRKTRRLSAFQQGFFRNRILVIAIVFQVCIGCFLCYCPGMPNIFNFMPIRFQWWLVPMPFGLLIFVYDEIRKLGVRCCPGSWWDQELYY
T1 sequence (P18434 whole entry partner): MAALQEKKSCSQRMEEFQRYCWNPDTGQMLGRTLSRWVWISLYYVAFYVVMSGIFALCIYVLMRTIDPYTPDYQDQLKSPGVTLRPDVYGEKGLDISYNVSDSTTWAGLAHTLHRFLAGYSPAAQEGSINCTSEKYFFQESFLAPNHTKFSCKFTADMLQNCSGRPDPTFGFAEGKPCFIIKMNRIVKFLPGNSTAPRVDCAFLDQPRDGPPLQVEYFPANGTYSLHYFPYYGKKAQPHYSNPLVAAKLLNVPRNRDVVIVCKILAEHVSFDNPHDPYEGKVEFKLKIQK
Protocol: Pig gastric membranes enriched in apical and tubulovesicular membranes were prepared according to [59].
The H^+,K^+-ATPase activity was measured at 37° C. in a 1-mL reaction mixture containing 2 mM MgCl2, 2 mM ATP, 10 mM PIPES (pH 6.8), 10 mM KCl and 10-12 μg membrane protein. An otherwise complete assay mixture was preincubated for 10 min in presence and absence of different concentrations of oenothein C or omeprazole before initiating the reaction with ATP. After incubation for 10 min, the reaction was terminated by the addition of 1 mL ice-chilled TCA (14%).
K^+-stimulated activity, referred to as H^+,K^+-ATPase, was calculated as the difference between the activity in presence of Mg plus K^+ and the basal activity (Mg^+-ATPase) in presence of Mg^+ alone. […] Following enzymatic assay method, the inhibitory activity of oenothein C was assessed. The effects are quantitated in terms of percent inhibition of H^+,K^+-ATPase, and compared with that of omeprazole, a specific inhibitor of gastric H^+,K^+-ATPase.

H. pylori [2] = assay: Disc diffusion sensitivity assay against H. pylori; assay type: cell-based, Helicobacter pylori; settings: for zone of inhibition at 100 µg/disc / zone of inhibition at 200 µg/disc: Helicobacter pylori, read-out: Inhibition Zone Diameter; for zone of inhibition at 100 µg/disc: 100 μg/disc; for zone of inhibition at 200 µg/disc: 200 μg/disc
B. cereus = assay: Antibacterial microbroth dilution assay in Muller Hinton broth (NCCLS); assay type: cell-based; settings: Bacillus cereus, gram positive
Description: (§1) Further, the antibacterial activity of oenothein C was examined against four aerobic bacteria (1 gram positive, B. cereus and 3 gram negative, S. typhi, E. coli & K. pneumoniae) by microbroth dilution assay in Muller Hinton broth essentially by following NCCLS (National Commmittee for Clinical Laboratory Standards) guideline.

E. coli = assay: as above; assay type: cell-based; settings: Escherichia coli, gram negative
Description: as §1

K. pneumoniae = assay: as above; assay type: cell-based; settings: Klebsiella pneumoniae, gram negative
Description: as §1

S. typhi = assay: as above; assay type: cell-based; settings: Salmonella enterica
Description: as §1

Swiss albino mice = assay: Toxicity evaluation (mortality) in Swiss albino mice; assay type: in vivo
Protocol: The compound oenothein C was checked for mortality of the Swiss albino mice.
Maximum dosage of 250 mg/Kg body weight of compound oenothein C was given to 5 swiss albino mice via oral route.

Solubility in solvents = assay type: physicochemical; settings: methanol, acetone, DMSO
Protocol: The molecule oenothein C has been isolated from the flowers of the plant Woodfordia fruticosa, abundantly available in the Indian subcontinent. Dried flowers of Woodfordia fruticosa were extracted by soaking overnight with 1:1 methanol-water at room temperature. The process was repeated thrice. The combined extract was evaporated at 45° C. in a rotary evaporator to get the crude extract. This was partitioned between n-butanol and water. The layers were separately evaporated at 45° C. to obtain two fractions. The n-butanol soluble fraction was chromatographed repeatedly over diaion HP-20 and sephadex LH-20 columns following bioassay guided fractionation technique to obtain pure oenothein C as an off-white solid, amorphous in nature.

[3] = Helicobacter pylori, ATCC43504, strain ATCC 43504
[4] = Helicobacter pylori, ATCC43504, strain ATCC 43504, read-out: MIC
[5] = Helicobacter pylori, ATCC43629, strain ATCC 43629
[6] = Helicobacter pylori, ATCC43629, strain ATCC 43629, read-out: MIC
[7] = Helicobacter pylori, ATCC49503, strain ATCC 49503, read-out: MIC
[8] = Helicobacter pylori, NCTC26695, strain NCTC 26695
[9] = Helicobacter pylori, NCTC26695, strain NCTC 26695, read-out: MIC
[10] = Helicobacter pylori, strain 80A
[11] = Helicobacter pylori, ATCC49503, strain ATCC 49503
[12] = Helicobacter pylori, strain 80A, read-out: MIC

Cc1ncc([N+](=O)[O-])n1CCO [Metronidazole, metronidazole]
MBC (H. pylori [1]; [3]): 100 µg/mL (≈ 584 µM) | MIC (H. pylori [1]; [4]): 50 µg/mL (≈ 292 µM) | MBC (H. pylori [1]; [5]): 6.25 µg/mL (≈ 36.5 µM) | MIC (H. pylori [1]; [6]): 1.56 µg/mL (≈ 9.11 µM) | MIC (H. pylori [1]; [7]): 1.56 µg/mL (≈ 9.11 µM) | MBC (H. pylori [1]; [8]): 10 µg/mL (≈ 58.4 µM) | MIC (H. pylori [1]; [9]): 1.56 µg/mL (≈ 9.11 µM) | MBC (H. pylori [1]; [10]): > 100 µg/mL

O=C(O[C@H]1[C@H](O)[C@@H](CO)OC(O)[C@@H]1OC(=O)c1cc(O)c(O)c(O)c1Oc1cc2c(=O)oc3c(O)c(O)cc4c(=O)oc(c1O)c2c34)c1cc(O)c(O)c(O)c1 (mixture of isomers) [Oenothein C, D-Glucose 2-[2-[(5,10-dihydro-3,7,8-trihydroxy-5,10-dioxo[1]benzopyrano[5,4,3-cde][1]benzopyran-2-yl)oxy]-3,4,5-trihydroxy benzoate]-3-(3,4,5-trihydroxybenzoate)]
inhibition at 0.13 µM (gastric H+,K+-ATPase; 0.13 μM): 20 to 30% | inhibition at 0.64 µM (gastric H+,K+-ATPase; 0.64 μM): 50 to 70% | inhibition at 1.3 µM (gastric H+,K+-ATPase; 1.30 μM): 70 to 90% | IC50 (gastric H+,K+-ATPase; concentration range 0.13 to 1.3 μM, read-out: IC50 of gastric proton pump activity in vitro): 600 to 800 nM | degree of inhibition of the gastric proton pump (gastric H+,K+-ATPase; over 0.13-1.30 μM): 20-90% | degree of inhibition of gastric proton pump higher as compared with omeprazole (gastric H+,K+-ATPase; versus omeprazole, identical conditions): about 20 fold | inhibition zone diameter, range over strains (H. pylori [2]; 100-200 μg/disc, 6 different strains of H. pylori): 1.7-2.5 cm | zone of inhibition at 100 µg/disc (H. pylori [2]; strain 80A): 20 mm | zone of inhibition at 200 µg/disc (H. pylori [2]; strain 80A): 25 mm | zone of inhibition at 100 µg/disc (H. pylori [2]; strain 121A): 17 mm | zone of inhibition at 200 µg/disc (H. pylori [2]; strain 121A): 20 mm | Inhibition Zone Diameter (H. pylori [2]; strain ATCC 43504, 100 μg/disc): 2.0 cm | Inhibition Zone Diameter (H. pylori [2]; strain ATCC 43504, 200 μg/disc): 2.7 cm | Inhibition Zone Diameter (H. pylori [2]; strain ATCC 43629, 100 μg/disc): 1.9 cm | Inhibition Zone Diameter (H. pylori [2]; strain ATCC 43629, 200 μg/disc): 2.3 cm | Inhibition Zone Diameter (H. pylori [2]; strain ATCC 49503, 100 μg/disc): 1.7 cm | Inhibition Zone Diameter (H. pylori [2]; strain ATCC 49503, 200 μg/disc): 2.2 cm | Inhibition Zone Diameter (H. pylori [2]; strain NCTC 26695, 100 μg/disc): 2.0 cm | Inhibition Zone Diameter (H. pylori [2]; strain NCTC 26695, 200 μg/disc): 2.4 cm | fold less competent in respect of metronidazole MIC values (H. pylori [1]; 5 strains): 2-20 fold | MBC (H. pylori [1]; [3]): > 50 µg/mL | MIC (H. pylori [1]; [4]): 25 µg/mL | MBC (H. pylori [1]; [5]): > 50 µg/mL | MIC (H. pylori [1]; [6]): 25 µg/mL | MBC (H. pylori [1]; [11]): 50 µg/mL | MIC (H. pylori [1]; [7]): 6.25 µg/mL | MBC (H. pylori [1]; [8]): 25 µg/mL | MIC (H. pylori [1]; [9]): 12.5 µg/mL | MBC (H. pylori [1]; [10]): 50 µg/mL | MIC (H. pylori [1]; [12]): 25 µg/mL | minimum inhibitory concentration (MIC), range over strains (H. pylori [1]; clinical and standard strains of H. pylori): 6.25 to 25.0 µg/mL | fold less potent as compared with clarithromycin and amoxycillin, based on MIC values (H. pylori [1]; different strains): 500-1000 fold | MIC (B. cereus): > 400 µg/mL | MIC (E. coli): > 400 µg/mL | MIC (K. pneumoniae): > 400 µg/mL | MIC (S. typhi): > 400 µg/mL | health and behaviour under observation (Swiss albino mice; 250 mg/Kg body weight, oral route, 15 days): found to remain healthy, and no behavioral abnormality were noted | mortality (Swiss albino mice; 250 mg/Kg body weight, oral route, after 24 hours): no mortality | toxic effect (Swiss albino mice; single dose level up to 250 mg/kg body weight): does not show any toxic effect | solubility (Solubility in solvents): soluble in methanol, acetone and DMSO

CC[C@H]1OC(=O)[C@H](C)[C@@H](O[C@H]2C[C@@](C)(OC)[C@@H](O)[C@H](C)O2)[C@H](C)[C@@H](O[C@@H]2O[C@H](C)C[C@H](N(C)C)[C@H]2O)[C@](C)(OC)C[C@@H](C)C(=O)[C@H](C)[C@@H](O)[C@]1(C)O [Clarithromycin, clarithromycin]
Inhibition Zone Diameter (H. pylori [2]; strain 80A, 10 ng/disc): 1.8 (10) cm | Inhibition Zone Diameter (H. pylori [2]; strain 121A, 10 ng/disc): 1.8 (10) cm | Inhibition Zone Diameter (H. pylori [2]; strain ATCC 43504, 40 ng/disc): 2.0 (40) cm | Inhibition Zone Diameter (H. pylori [2]; strain ATCC 43629, 100 ng/disc): 1.7 (100) cm | Inhibition Zone Diameter (H. pylori [2]; strain ATCC 49503, 5 ng/disc): 1.7 (5) cm | Inhibition Zone Diameter (H. pylori [2]; strain NCTC 26695, 400 ng/disc): 2.0 (400) cm | MBC (H. pylori [1]; [3]): 0.05 µg/mL (≈ 0.0668 µM) | MIC (H. pylori [1]; [4]): 0.025 µg/mL (≈ 0.0334 µM) | MBC (H. pylori [1]; [5]): 0.1 µg/mL (≈ 0.134 µM) | MIC (H. pylori [1]; [6]): 0.05 µg/mL (≈ 0.0668 µM) | MBC (H. pylori [1]; [11]): 0.013 µg/mL (≈ 0.0174 µM) | MIC (H. pylori [1]; [7]): 0.00625 µg/mL (≈ 0.00836 µM) | MBC (H. pylori [1]; [8]): 0.1 µg/mL (≈ 0.134 µM) | MIC (H. pylori [1]; [9]): 0.0625 µg/mL (≈ 0.0836 µM) | MBC (H. pylori [1]; [10]): 0.04 µg/mL (≈ 0.0535 µM) | MIC (H. pylori [1]; [12]): 0.02 µg/mL (≈ 0.0267 µM) | MIC (H. pylori [1]; strain 80A): 0.02 µg/mL (≈ 0.0267 µM) | MIC (H. pylori [1]; strain ATCC 43504): 0.025 µg/mL (≈ 0.0334 µM) | MIC (H. pylori [1]; strain ATCC 43629): 0.050 µg/mL (≈ 0.0668 µM) | MIC (H. pylori [1]; strain ATCC 49503): 0.006 µg/mL (≈ 0.00802 µM) | MIC (H. pylori [1]; strain NCTC 26695): 0.063 µg/mL (≈ 0.0842 µM)

CC1(C)S[C@@H]2[C@H](NC(=O)[C@H](N)c3ccc(O)cc3)C(=O)N2[C@H]1C(=O)O [Amoxycillin, amoxycillin]
MBC (H. pylori [1]; [3]): 0.05 µg/mL (≈ 0.137 µM) | MIC (H. pylori [1]; [4]): 0.025 µg/mL (≈ 0.0684 µM) | MBC (H. pylori [1]; [5]): 0.05 µg/mL (≈ 0.137 µM) | MIC (H. pylori [1]; [6]): 0.025 µg/mL (≈ 0.0684 µM) | MBC (H. pylori [1]; [11]): 0.05 µg/mL (≈ 0.137 µM) | MIC (H. pylori [1]; [7]): 0.0125 µg/mL (≈ 0.0342 µM) | MBC (H. pylori [1]; [8]): < 1 µg/mL | MIC (H. pylori [1]; [9]): 0.1 µg/mL (≈ 0.274 µM) | MBC (H. pylori [1]; [10]): 0.08 µg/mL (≈ 0.219 µM) | MIC (H. pylori [1]; [12]): 0.02 µg/mL (≈ 0.0547 µM) | MIC (H. pylori [1]; strain 80A): 0.02 µg/mL (≈ 0.0547 µM) | MIC (H. pylori [1]; strain ATCC 43504): 0.025 µg/mL (≈ 0.0684 µM) | MIC (H. pylori [1]; strain ATCC 43629): 0.025 µg/mL (≈ 0.0684 µM) | MIC (H. pylori [1]; strain ATCC 49503): 0.013 µg/mL (≈ 0.0356 µM) | MIC (H. pylori [1]; strain NCTC 26695): 0.1 µg/mL (≈ 0.274 µM)

COc1ccc2[nH]c([S+]([O-])Cc3ncc(C)c(OC)c3C)nc2c1 (centres unmarked) [Omeprazole, omeprazole]
% Inhibition of H+,K+-ATPase (gastric H+,K+-ATPase; 3 μM): 10-30% | inhibition at 3 µM (gastric H+,K+-ATPase; 3 μM): ~20% | inhibition at 15 µM (gastric H+,K+-ATPase; 15 μM): 40 to 60% | inhibition at 30 µM (gastric H+,K+-ATPase; 30 μM): 80 to 90% | degree of inhibition of the gastric proton pump (gastric H+,K+-ATPase; over 3-30 μM): 10-90%

COC(=O)c1cc(O)c(O)c(O)c1 [methyl gallate]
activity in the anti-proton pump test (gastric H+,K+-ATPase): did not show any activity | activity in the disc diffusion anti-H. pylori test (H. pylori [2]): did not show any activity | activity in the MIC/MBC anti-H. pylori test (H. pylori [1]): did not show any activity

Reference: US8383690B2, “Pharmaceutical composition useful for the treatment of peptic ulcer diseases” (Council of Scientific and Industrial Research, priority 2006, dated 2013)
